According to ChEMBL document CHEMBL2380208, “Novel quinoline derivatives as inhibitors of bacterial DNA gyrase and topoisomerase IV” (Bioorg Med Chem Lett, 2013):
In brackets after ≈: the same amount, converted by molar mass.

Legend:
Staphylococcus aureus [1] = test: Antibacterial activity against fluoroquinolone-resistant Staphylococcus aureus harboring DNA gyrase D83N mutant; format: functional
Staphylococcus aureus [2] = test: Antibacterial activity against fluoroquinolone-resistant Staphylococcus aureus harboring DNA gyrase M121K mutant; format: functional
Staphylococcus aureus [3] = test: Antibacterial activity against fluoroquinolone-resistant Staphylococcus aureus 1095; format: functional
DNA gyrase = DNA gyrase (Staphylococcus aureus, UniProt P0A0K8+P20831); test: Inhibition of Staphylococcus aureus DNA gyrase; format: protein-complex assay
[4] = Inhibition of Staphylococcus aureus DNA topoisomerase 4
Staphylococcus aureus [5] = test: Antibacterial activity against Staphylococcus aureus 1146; format: functional
Staphylococcus aureus [6] = test: Antibacterial activity against fluoroquinolone-resistant Staphylococcus aureus 1095 infected in mouse assessed as survival compound administered 0.5 to 4 hrs post-infection measured after 7 days; format: functional; conditions: read-out: PD50
Streptococcus pyogenes [7] = test: Antibacterial activity against Streptococcus pyogenes; format: functional
[8] = Clearance in rat at 2 mg/kg, iv and 5 mg/kg, po; format: ADME, organism-based; conditions: in vivo
Staphylococcus aureus [9] = test: Antibacterial activity against Staphylococcus aureus; format: functional
[10] = Inhibition of human DNA topoisomerase 4
[11] = Inhibition of Streptococcus pneumoniae topoisomerase 4
[12] = Inhibition of Streptococcus pneumoniae DNA gyrase
DNA gyrase subunit A [13] = target: DNA gyrase subunit A (Staphylococcus aureus, UniProt P20831, D83N); test: Inhibition of Staphylococcus aureus DNA gyrase D83N mutant
DNA gyrase subunit A [14] = target: DNA gyrase subunit A (Staphylococcus aureus, UniProt P20831, M121K); test: Inhibition of Staphylococcus aureus DNA gyrase M121K mutant
[15] = target: Voltage-gated inwardly rectifying potassium channel KCNH2 (Homo sapiens, UniProt Q12809); test: Inhibition of human ERG channel in HEK293 cells by voltage-gated patch clamp technique; format: cell-based
Voltage-gated inwardly rectifying potassium channel KCNH2, sequence (Q12809 whole entry): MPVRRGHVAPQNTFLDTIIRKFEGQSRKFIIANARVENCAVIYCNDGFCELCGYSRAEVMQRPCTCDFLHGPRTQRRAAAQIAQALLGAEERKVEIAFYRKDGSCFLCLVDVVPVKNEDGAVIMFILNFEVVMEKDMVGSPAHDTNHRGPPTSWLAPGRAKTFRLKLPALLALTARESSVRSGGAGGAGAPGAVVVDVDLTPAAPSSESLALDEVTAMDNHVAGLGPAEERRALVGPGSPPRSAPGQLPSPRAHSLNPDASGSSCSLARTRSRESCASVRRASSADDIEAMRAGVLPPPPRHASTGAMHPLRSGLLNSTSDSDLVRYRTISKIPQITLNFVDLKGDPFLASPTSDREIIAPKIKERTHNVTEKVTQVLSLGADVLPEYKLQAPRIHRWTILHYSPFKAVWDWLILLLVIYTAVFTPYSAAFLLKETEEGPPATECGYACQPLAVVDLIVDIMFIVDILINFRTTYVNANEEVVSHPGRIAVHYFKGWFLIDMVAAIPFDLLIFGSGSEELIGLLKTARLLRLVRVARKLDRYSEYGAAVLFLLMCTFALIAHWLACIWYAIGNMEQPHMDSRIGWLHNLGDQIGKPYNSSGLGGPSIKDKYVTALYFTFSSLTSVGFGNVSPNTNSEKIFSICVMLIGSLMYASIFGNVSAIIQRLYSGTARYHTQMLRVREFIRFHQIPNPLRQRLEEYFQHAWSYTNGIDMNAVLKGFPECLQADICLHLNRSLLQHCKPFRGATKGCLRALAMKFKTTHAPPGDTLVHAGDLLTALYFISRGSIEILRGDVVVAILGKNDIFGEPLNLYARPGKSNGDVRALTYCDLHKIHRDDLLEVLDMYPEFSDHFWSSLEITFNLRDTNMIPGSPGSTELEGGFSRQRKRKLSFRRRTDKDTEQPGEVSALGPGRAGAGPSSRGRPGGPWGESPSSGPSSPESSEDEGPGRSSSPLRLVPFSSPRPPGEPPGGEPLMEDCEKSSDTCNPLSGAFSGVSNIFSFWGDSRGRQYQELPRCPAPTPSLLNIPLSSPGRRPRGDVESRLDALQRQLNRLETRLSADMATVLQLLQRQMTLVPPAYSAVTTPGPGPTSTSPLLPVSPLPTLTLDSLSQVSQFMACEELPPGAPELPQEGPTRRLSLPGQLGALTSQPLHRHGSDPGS

Streptococcus pyogenes [16] = test: Antibacterial activity against Streptococcus pyogenes 02C0203 infected in mouse assessed as survival compound administered 0.5 to 4 hrs post-infection measured after 7 days; conditions: 02C0203, in Mus musculus, read-out: PD50
[17] = Volume of distribution at steady state in rat at 2 mg/kg, iv and 5 mg/kg, po; format: ADME, organism-based; conditions: in vivo, read-out: Vdss
[18] = Oral bioavailability in rat at 5 mg/kg; format: ADME, organism-based; conditions: in vivo

Compound	MIC (Staphylococcus aureus [1]) [µg/mL]	MIC (Staphylococcus aureus [2]) [µg/mL]	MIC (Staphylococcus aureus [3]) [µg/mL]	IC50 (DNA gyrase) [µM]	IC50 [4] [µM]	MIC (Staphylococcus aureus [5]) [µg/mL]	ED50 (Staphylococcus aureus [6]) [mg/kg]	MIC90 (Streptococcus pyogenes [7]) [µg/mL]	clearance [8] [mL/min/kg]	MIC90 (Staphylococcus aureus [9]) [µg/mL]	IC50 [10] [µM]	IC50 [11] [µM]	IC50 [12] [µM]	IC50 (DNA gyrase subunit A [13]) [µM]	IC50 (DNA gyrase subunit A [14]) [µM]	IC50 [15] [µM]	ED50 (Streptococcus pyogenes [16]) [mg/kg]	Vd [17] [L/kg]	bioavailability [18] [%]
COc1ccc2nccc([C@@H](O)CC[C@@H]3CCN(C4CC(c5ccc(F)c(F)c5F)C4)C[C@@H]3C(=O)O)c2c1 (stereo partly specified)	> 64	> 64	0.5 (≈ 0.946 µM)	3.13	110	≤ 0.0625	–	–	–	–	–	–	–	–	–	–	–	–	–
COc1ccc2nccc([C@@H](O)CC[C@@H]3CCN(C4CC(c5ccccc5)C4)C[C@@H]3C(=O)O)c2c1 (stereo partly specified)	≥ 32	≥ 64	0.2 (≈ 0.421 µM)	1.19	32.1	0.09 (≈ 0.19 µM)	6.9	1 (≈ 2.11 µM)	43.1	0.25 (≈ 0.527 µM)	> 200	8.37	8.84	> 200	> 200	24.9	14.1	1.24	27
COc1ccc2nccc([C@@H](O)CC[C@@H]3CCN(C4CC(c5cccc(F)c5F)C4)C[C@@H]3C(=O)O)c2c1 (stereo partly specified)	32 (≈ 62.7 µM)	32 (≈ 62.7 µM)	< 0.0625	1.56	30	≤ 0.0625	–	–	–	–	–	–	–	–	–	–	–	–	–
COc1ccc2nccc([C@@H](O)CC[C@@H]3CCN(C4CC(c5cc(F)c(F)cc5F)C4)C[C@@H]3C(=O)O)c2c1 (stereo partly specified)	32 (≈ 60.5 µM)	64 (≈ 121 µM)	–	1.56	37	≤ 0.0625	–	–	–	–	–	–	–	–	–	–	–	–	–
COc1ccc2nccc([C@@H](O)CC[C@@H]3CCN(C4CC(c5cc(F)cc(F)c5OC)C4)C[C@@H]3C(=O)O)c2c1 (stereo partly specified)	32 (≈ 59.2 µM)	64 (≈ 118 µM)	2 (≈ 3.7 µM)	6.25	60	0.5 (≈ 0.925 µM)	–	–	–	–	–	–	–	–	–	–	–	–	–
COc1ccc2nccc([C@@H](O)CC[C@@H]3CCN(C4CC(c5cc(F)c(Cl)cc5F)C4)C[C@@H]3C(=O)O)c2c1 (stereo partly specified)	> 64	> 64	1 (≈ 1.83 µM)	4.7	120	0.25 (≈ 0.459 µM)	–	–	–	–	–	–	–	–	–	–	–	–	–
COc1ccc2nccc(C(O)CC[C@@H]3CCN(C[C@@H]4C[C@H]4c4ccccc4)C[C@@H]3C(=O)O)c2c1 (mixture of isomers)	–	–	–	–	–	1	–	–	–	–	150	7.5	50	–	–	–	–	–	–
COc1ccc2nccc([C@@H](O)CC[C@@H]3CCN(CCSc4cccs4)C[C@@H]3C(=O)O)c2c1	> 64	> 64	0.1 (≈ 0.205 µM)	2.42	84.6	0.068 (≈ 0.14 µM)	34.7	–	–	–	> 200	6.54	5.85	–	–	–	–	–	–
COc1ccc2nccc([C@@H](O)CC[C@@H]3CCN(C4CC(c5c(OC)ccc(F)c5F)C4)C[C@@H]3C(=O)O)c2c1 (stereo partly specified)	64 (≈ 118 µM)	> 64	2 (≈ 3.7 µM)	1.56	45	0.25 (≈ 0.462 µM)	–	–	–	–	–	–	–	–	–	–	–	–	–
COc1ccc2nccc([C@@H](O)CC[C@@H]3CCN(C4CC(c5c(F)cccc5F)C4)C[C@@H]3C(=O)O)c2c1 (stereo partly specified)	32 (≈ 62.7 µM)	23 (≈ 45 µM)	0.25 (≈ 0.49 µM)	2.93	> 100	0.125 (≈ 0.245 µM)	16.3	1 (≈ 1.96 µM)	39.7	0.25 (≈ 0.49 µM)	–	–	–	–	–	–	22	3	–
COc1ccc2ncc(F)c([C@@H](O)CC[C@@H]3CCN(CCSc4cccs4)C[C@@H]3C(=O)O)c2c1	32 (≈ 63.4 µM)	64 (≈ 127 µM)	0.125 (≈ 0.248 µM)	1.56	30.4	≤ 0.063	22.1	0.25 (≈ 0.495 µM)	32.7	0.125 (≈ 0.248 µM)	> 200	–	–	–	–	23.6	–	2.55	31.5
COc1ccc2nccc([C@@H](O)CC[C@@H]3CCN(C4CC(c5ccc(F)cc5F)C4)C[C@@H]3C(=O)O)c2c1 (stereo partly specified)	64 (≈ 125 µM)	64 (≈ 125 µM)	0.25 (≈ 0.49 µM)	9.4	60	≤ 0.0625	–	–	–	–	–	–	–	–	–	–	–	–	–
COc1ccc2nccc([C@@H](O)CC[C@@H]3CCN(C4CC(c5ccccc5F)C4)C[C@@H]3C(=O)O)c2c1 (stereo partly specified)	64 (≈ 130 µM)	> 64	≤ 0.0625	12.5	37	≤ 0.0625	–	–	–	–	–	–	–	–	–	–	–	–	–
